{"source": "patent US20070049518A1", "about": "“Novel method of treatment of inflammatory skin conditions” (priority 2005, published 2007)", "key": {"[1]": {"biological_target": "T1, recombinant human kallikrein 5 (Homo sapiens, UniProt Q9Y337)", "T1 construct": "purchased R&D Systems Inc", "T1 sequence (Q9Y337 23-293)": "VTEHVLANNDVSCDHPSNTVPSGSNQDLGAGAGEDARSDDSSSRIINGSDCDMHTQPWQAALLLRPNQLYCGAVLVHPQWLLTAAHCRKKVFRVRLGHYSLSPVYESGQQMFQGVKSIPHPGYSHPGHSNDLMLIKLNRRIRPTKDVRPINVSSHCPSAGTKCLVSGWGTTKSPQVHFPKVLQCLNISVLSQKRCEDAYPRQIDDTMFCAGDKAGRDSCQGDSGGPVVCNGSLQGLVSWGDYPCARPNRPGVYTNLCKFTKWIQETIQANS", "assay": "Selectivity profile, kallikrein 5", "assay_type": "biochemical", "details": "read-out: inhibition at 0.1 mM, Kallikrein 5", "protocol": "(§1) Inhibitory activity was tested in reaction mixtures (0.1 ml) containing 2% (v/v) DMSO vehicle±compound plus additions as follows. V8 protease: 90 mM MOPS (sodium) buffer pH 7.0, […] calcium chloride, 0.045% Brij 35, 10 μM Mca-Leu-Glu-Val-Asp-Gly-Trp-Lys(Dnp)-amide (Bachem) and V8 (BioCentrum Ltd; 30 ng). Staphopain A and B: 90 mM MOPS (sodium) buffer pH 7.0, 1.8 mM cysteine-HCl (pH-adjusted with NaOH), 0.045% Brij 35, 0.1 mM Z-Phe-Arg-AMC hydrochloride (Bachem) and staphopain A or B (BioCentrum Ltd; 30 ng). Human kallikrein 5: 0.1M sodium phosphate buffer pH 8.0, 0.045% Brij 35, 0.1 mM Boc-Val-Pro-Arg-AMC (Sigma) and recombinant human kallikrein 5 (R&D Systems Inc; 6 ng). Human kallikrein 7: 72 mM Tris-HCl pH 8.0, 0.033% Brij 35, 1.2 mM S-2586 (Chromogenix Instrumentation Laboratory SpA) and recombinant human kallikrein 7 (R&D Systems Inc; 0.6 μg) that had been thermolysin-activated according to the manufacturer's instructions. Human angiotensin-converting enzyme (ACE): 45 mM MES (sodium) buffer pH 6.5, 0.045% Brij 35, 10 μM Mca-[…]Dnp)-OH(R&D Systems Inc) and recombinant human ACE (R&D Systems Inc; 1.3 ng). Human cathepsin D: 0.1M sodium acetate buffer pH 3.5, 0.2M sodium chloride, 0.045% Brij 35, 10 μM Mca-Pro-Leu-Gly-Leu-Dap(Dnp)-Ala-Arg-amide (Bachem) and recombinant human cathepsin D (R&D Systems Inc; 8 ng) activated according to the manufacturer's instructions. […]"}, "[2]": {"test_system": "V8 protease in S. aureus 8325-4 culture supernatant", "assay": "V8 protease activity in supernatant of S. aureus grown with compound", "assay_type": "cell-based, Staphylococcus aureus", "protocol": "(§2) Duplicate samples of brain heart infusion medium (5 ml; Becton Dickinson and Co.) containing 10% skimmed milk and 2% (v/v) DMSO vehicle±Compound 12 were inoculated with S. aureus 8325-4 (approximately 10^7 cells in tryptic soy broth) and incubated for 16 h at 37° C./220 rpm. Cultures were centrifuged to remove bacteria and the culture supernatants stored at −70° C. pending analysis of protease activity.\n(§3) Enzyme activities were measured in mixtures containing 90 mM MOPS (sodium) buffer pH 7.0 (0.1 ml), 0.045% Brij 35, 2% (v/v) DMSO vehicle±Compound 12 and culture supernatant (4 μl). The concentration of compound used was the same as that which had been used to culture the assayed sample. Further additions to the reaction mixtures were as follows. Aureolysin assay: 4.5 mM calcium chloride, 9 μM E-64 (to inhibit cysteine protease activity) and 10 μM Mca-Pro-Leu-Gly-Leu-Dap(Dnp)-Ala-Arg-amide (Bachem); V8 protease assay: 10 μM Mca-Leu-Glu-Val-Asp-Gly-Trp-Lys(Dnp)-amide (Bachem); cysteine protease assay: 1.8 mM cysteine-HCl (pH-adjusted with NaOH), 9 mM EDTA and 0.1 mM Z-Phe-Arg-AMC hydrochloride (Bachem). The rate of product formation at 37° C. was monitored over 6 h taking readings at 15 min intervals using a POLARstar OPTIMA plate reader (BMG LABTECH Ltd) with 320 nm excitation/405 nm emission for aureolysin and V8 assays and 390 nm excitation/460 nm emission for the cysteine protease assay. Enzyme activities were determined from the linear rate of fluorescence increase and converted to percent inhibition by reference to vehicle control samples."}, "[3]": {"test_system": "Aureolysin in S. aureus 8325-4 culture supernatant", "assay": "Aureolysin activity in supernatant of S. aureus grown with compound", "assay_type": "cell-based, Staphylococcus aureus", "protocol": "as §2, §3"}, "[4]": {"biological_target": "aureolysin (Staphylococcus aureus, UniProt P81177)", "sequence (P81177 209-509)": "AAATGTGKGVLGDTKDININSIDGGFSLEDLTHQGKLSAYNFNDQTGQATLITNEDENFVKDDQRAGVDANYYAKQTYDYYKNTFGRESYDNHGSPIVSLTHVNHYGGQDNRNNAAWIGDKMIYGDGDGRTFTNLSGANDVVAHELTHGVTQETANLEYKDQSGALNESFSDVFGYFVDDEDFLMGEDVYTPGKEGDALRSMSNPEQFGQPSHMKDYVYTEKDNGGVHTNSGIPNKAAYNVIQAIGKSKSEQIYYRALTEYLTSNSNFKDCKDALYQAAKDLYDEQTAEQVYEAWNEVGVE", "assay": "Inhibition of aureolysin-mediated pro-uPA activation", "details": "for Relative activity: Aureolysin 1 μg/ml, pH 5.6", "description": "Under these conditions the extent of pro-uPA cleavage as assessed by uPA activity was directly proportional to the concentration of aureolysin in the assay."}, "[5]": {"biological_target": "T2, recombinant human ACE (Homo sapiens, UniProt P12821)", "T2 construct": "purchased R&D Systems Inc", "T2 sequence (P12821 30-1306)": "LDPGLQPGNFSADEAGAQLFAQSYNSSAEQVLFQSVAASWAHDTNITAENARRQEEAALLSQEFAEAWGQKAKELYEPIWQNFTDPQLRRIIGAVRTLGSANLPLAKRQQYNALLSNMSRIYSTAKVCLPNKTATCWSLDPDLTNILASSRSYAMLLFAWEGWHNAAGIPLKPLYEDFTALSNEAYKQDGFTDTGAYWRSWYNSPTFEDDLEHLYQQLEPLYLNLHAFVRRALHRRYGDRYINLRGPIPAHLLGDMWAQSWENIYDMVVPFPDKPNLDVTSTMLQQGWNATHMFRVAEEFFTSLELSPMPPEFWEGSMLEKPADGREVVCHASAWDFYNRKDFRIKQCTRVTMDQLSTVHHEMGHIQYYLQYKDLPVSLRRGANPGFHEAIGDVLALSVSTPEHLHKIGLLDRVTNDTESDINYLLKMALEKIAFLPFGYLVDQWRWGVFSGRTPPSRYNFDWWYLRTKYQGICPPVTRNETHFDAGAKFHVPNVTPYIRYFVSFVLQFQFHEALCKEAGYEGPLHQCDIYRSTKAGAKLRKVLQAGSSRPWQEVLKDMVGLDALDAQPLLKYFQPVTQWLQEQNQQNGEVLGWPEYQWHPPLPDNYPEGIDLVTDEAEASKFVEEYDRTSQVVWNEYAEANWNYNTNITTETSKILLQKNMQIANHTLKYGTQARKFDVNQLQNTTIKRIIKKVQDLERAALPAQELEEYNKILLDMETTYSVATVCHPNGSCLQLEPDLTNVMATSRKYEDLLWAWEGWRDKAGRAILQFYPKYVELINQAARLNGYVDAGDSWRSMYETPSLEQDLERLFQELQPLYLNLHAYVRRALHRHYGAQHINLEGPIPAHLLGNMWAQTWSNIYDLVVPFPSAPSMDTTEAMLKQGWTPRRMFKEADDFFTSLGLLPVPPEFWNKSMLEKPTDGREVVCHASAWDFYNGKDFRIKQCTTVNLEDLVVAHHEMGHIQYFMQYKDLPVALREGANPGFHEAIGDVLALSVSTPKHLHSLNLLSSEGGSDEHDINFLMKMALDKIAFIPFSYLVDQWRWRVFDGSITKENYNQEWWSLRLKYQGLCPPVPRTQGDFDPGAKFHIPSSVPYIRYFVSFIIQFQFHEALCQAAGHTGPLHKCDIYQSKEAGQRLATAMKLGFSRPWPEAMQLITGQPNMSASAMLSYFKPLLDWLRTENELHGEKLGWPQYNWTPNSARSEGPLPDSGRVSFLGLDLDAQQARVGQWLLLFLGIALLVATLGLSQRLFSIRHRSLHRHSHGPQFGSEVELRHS", "assay": "Selectivity profile, ACE", "assay_type": "biochemical", "details": "read-out: inhibition at 0.1 mM, ACE", "protocol": "as §1"}, "[6]": {"test_system": "protease activity in skin wash samples from patients with acute AD", "assay": "Protease activity in skin wash samples, fluorogenic enzyme assay", "assay_type": "biochemical, human", "protocol": "A method has been developed to evaluate protease activity in skin washings. Skin washings from patients with acute eczema may be obtained by aspirating 0.5 ml sterile physiological saline over the skin surface using a sterile, disposable plastic Pasteur pipette The skin area ( 1 cm^2) is defined by a sterile open-ended plastic cylinder. […] Samples were incubated at 37° C. in a POLARstar Optima plate reader (BMG Labtech Ltd.) and fluorescence readings (320 nm excitation/405 nm emission) taken every 15 min for 6 h. Activity was expressed as the rate of increase in fluorescence as a function of time."}, "[7]": {"details": "Compound 12 40 μM in culture and assay"}, "[8]": {"details": "Compound 12 79 μM in culture and assay"}, "[9]": {"details": "Compound 12 159 μM in culture and assay"}, "[10]": {"details": "Compound 12 317 μM in culture and assay"}}}
{"smiles": "CNC(=O)[C@@H](NC(=O)[C@H](CC(=O)NO)CC(C)C)C(C)(C)C", "note": "[Compound 12, (S)—N1-((S)-3,3-dimethyl-1-(methylamino)-1-oxobutan-2-yl)-N4-hydroxy-2-isobutylsuccinamide]", "values": [{"measurement": "inhibition at 100 µM", "setting": "[1]", "value": 0, "unit": "%"}, {"measurement": "Inhibition (%) V8 protease", "setting": "[2]; [7]", "value": 83, "unit": "%"}, {"measurement": "Inhibition (%) V8 protease", "setting": "[2]; [8]", "value": 91, "unit": "%"}, {"measurement": "Inhibition (%) V8 protease", "setting": "[2]; [9]", "value": 97, "unit": "%"}, {"measurement": "Inhibition (%) V8 protease", "setting": "[2]; [10]", "value": 99, "unit": "%"}, {"measurement": "Inhibition (%) Aureolysin", "setting": "[3]; [7]", "value": 89, "unit": "%"}, {"measurement": "Inhibition (%) Aureolysin", "setting": "[3]; [8]", "value": 94, "unit": "%"}, {"measurement": "Inhibition (%) Aureolysin", "setting": "[3]; [9]", "value": 98, "unit": "%"}, {"measurement": "Inhibition (%) Aureolysin", "setting": "[3]; [10]", "value": 99, "unit": "%"}, {"measurement": "IC50", "setting": "[4]", "value": 2400, "unit": "nM"}, {"measurement": "Relative activity", "setting": "[4]; Compound 12 25 μM", "value": 37, "unit": "%"}, {"measurement": "Relative activity", "setting": "[4]; Compound 12 317 μM", "value": 8, "unit": "%"}, {"measurement": "inhibition at 100 µM", "setting": "[5]", "value": 0, "unit": "%"}]}
{"smiles": "CNC(=O)[C@@H](NC(=O)[C@@H](CC(=O)NO)CC(C)C)C(C)(C)C", "note": "[Compound 11, (R)—N1-((S)-3,3-dimethyl-1-(methylamino)-1-oxobutan-2-yl)-N4-hydroxy-2-isobutylsuccinamide]", "values": [{"measurement": "inhibition of protease activity in skin wash samples (in words)", "setting": "[6]; 50 μM, fluorogenic assay, AD patients", "value": "significant inhibition of protease activity"}, {"measurement": "% Inhibition protease activity with compound 11", "setting": "[6]; 50 μM, skin wash sample 5", "value": 100, "unit": "%"}, {"measurement": "% Inhibition protease activity with compound 11", "setting": "[6]; 50 μM, skin wash sample 7", "value": 48.7, "unit": "%"}, {"measurement": "% Inhibition protease activity with compound 11", "setting": "[6]; 50 μM, skin wash sample 14", "value": 88.5, "unit": "%"}, {"measurement": "% Inhibition protease activity with compound 11", "setting": "[6]; 50 μM, skin wash sample 17", "value": 96.4, "unit": "%"}, {"measurement": "% Inhibition protease activity with compound 11", "setting": "[6]; 50 μM, skin wash sample 18", "value": 75.6, "unit": "%"}, {"measurement": "% Inhibition protease activity with compound 11", "setting": "[6]; 50 μM, skin wash sample 21", "value": 85.1, "unit": "%"}, {"measurement": "% Inhibition protease activity with compound 11", "setting": "[6]; 50 μM, skin wash sample 26", "value": 85.3, "unit": "%"}, {"measurement": "% Inhibition protease activity with compound 11", "setting": "[6]; 50 μM, skin wash sample 30", "value": 100, "unit": "%"}, {"measurement": "% Inhibition protease activity with compound 11", "setting": "[6]; 50 μM, skin wash sample 36", "value": 95.3, "unit": "%"}, {"measurement": "% Inhibition protease activity with compound 11", "setting": "[6]; 50 μM, skin wash sample 37", "value": 81.8, "unit": "%"}, {"measurement": "% Inhibition protease activity with compound 11", "setting": "[6]; 50 μM, skin wash sample 39", "value": 100, "unit": "%"}, {"measurement": "% Inhibition protease activity with compound 11", "setting": "[6]; 50 μM, skin wash sample 40", "value": 85.6, "unit": "%"}, {"measurement": "% Inhibition protease activity with compound 11", "setting": "[6]; 50 μM, skin wash sample 43", "value": 91.8, "unit": "%"}, {"measurement": "% Inhibition protease activity with compound 11", "setting": "[6]; 50 μM, skin wash sample 48", "value": 96.9, "unit": "%"}, {"measurement": "Protease activity with 50 μM compound 11", "setting": "[6]; skin wash sample 5", "value": 0, "unit": "FIU/min/μl"}, {"measurement": "Protease activity with 50 μM compound 11", "setting": "[6]; skin wash sample 7", "value": 0.271, "unit": "FIU/min/μl"}, {"measurement": "Protease activity with 50 μM compound 11", "setting": "[6]; skin wash sample 14", "value": 0.0761, "unit": "FIU/min/μl"}, {"measurement": "Protease activity with 50 μM compound 11", "setting": "[6]; skin wash sample 17", "value": 0.123, "unit": "FIU/min/μl"}, {"measurement": "Protease activity with 50 μM compound 11", "setting": "[6]; skin wash sample 18", "value": 0.0674, "unit": "FIU/min/μl"}, {"measurement": "Protease activity with 50 μM compound 11", "setting": "[6]; skin wash sample 21", "value": 0.0302, "unit": "FIU/min/μl"}, {"measurement": "Protease activity with 50 μM compound 11", "setting": "[6]; skin wash sample 24 (activity without compound 0)", "value": 0.00122, "unit": "FIU/min/μl"}, {"measurement": "Protease activity with 50 μM compound 11", "setting": "[6]; skin wash sample 26", "value": 0.0554, "unit": "FIU/min/μl"}, {"measurement": "Protease activity with 50 μM compound 11", "setting": "[6]; skin wash sample 30", "value": 0, "unit": "FIU/min/μl"}, {"measurement": "Protease activity with 50 μM compound 11", "setting": "[6]; skin wash sample 36", "value": 0.0173, "unit": "FIU/min/μl"}, {"measurement": "Protease activity with 50 μM compound 11", "setting": "[6]; skin wash sample 37", "value": 0.126, "unit": "FIU/min/μl"}, {"measurement": "Protease activity with 50 μM compound 11", "setting": "[6]; skin wash sample 39", "value": 0, "unit": "FIU/min/μl"}, {"measurement": "Protease activity with 50 μM compound 11", "setting": "[6]; skin wash sample 40", "value": 0.103, "unit": "FIU/min/μl"}, {"measurement": "Protease activity with 50 μM compound 11", "setting": "[6]; skin wash sample 43", "value": 0.0814, "unit": "FIU/min/μl"}, {"measurement": "Protease activity with 50 μM compound 11", "setting": "[6]; skin wash sample 48", "value": 0.0287, "unit": "FIU/min/μl"}]}
